Laboratory results from US5658905A, “Use of triazine compounds as anxiolytics” (priority 1993, dated 1997).
Structures can show the parent of a compound that is named as a salt. Where two headings read alike, the source gives them in different places.

Key:
[1] = Vogel conflict (punished drinking) model of anxiety
[2] = isethionate salt, EP-A-0 247 892, cited from earlier work
[3] = Orientative acute oral toxicity (LD50) in rats; conditions: rat, in vivo, 50% survive 10 days after administration
Text: (§1) The present compounds are non-toxic at prophylactically and therapeutically effective doses. […] These are the dose levels at which 50% of the animals survive 10 days after administration of compound A.

[4] = test system: release of excitatory amino acids, principally glutamate; conditions: at anticonvulsant brain concentrations; Leach et al 1986; Zhu and McGee 1990; cited from earlier work
[5] = test system: voltage-sensitive sodium channels; conditions: Lang et al 1993; Lees and Leach 1993; cited from earlier work
[6] = test system: mice; test: Orientative acute oral toxicity (LD50) in mice; format: in vivo; conditions: 50% survive 10 days after administration
Text: as §1

[7] = reported; models not named; cited from earlier work
[8] = Rattus norvegicus, po, 1 h, read-out: number of licks, percentage of vehicle control responding
[9] = Rattus norvegicus, 1 h, read-out: number of licks, percentage of vehicle control responding
[10] = dose-response across tested doses, significance p<0.05, Mann-Whitney U-test
[11] = Rattus norvegicus, po, 1 h, read-out: number of licks, percentage of vehicle control responding, 40 mg/kg p.o., one hour before test, vehicle=100% (Table 3)
[12] = Rattus norvegicus, po, 1 h, read-out: number of licks, percentage of vehicle control responding, 80 mg/kg p.o., one hour before test, vehicle=100% (Table 3)
[13] = Rattus norvegicus, po, 1 h, read-out: number of licks, percentage of vehicle control responding, 160 mg/kg p.o., one hour before test, vehicle=100% (Table 3)
[14] = Rattus norvegicus, sc, 20 min, read-out: number of licks, percentage of vehicle control responding
[15] = Rattus norvegicus, po, 1 h, read-out: number of licks, percentage of vehicle control responding, 20 mg/kg p.o., one hour before test, vehicle=100% (Table 3)

`CCCC(CCC)C(=O)O` [Sodium valproate] showed a response vs control in vivo at 40 mg/kg [1, 8] of 79%, a response vs control in vivo at 80 mg/kg [1, 8] of 108% and a response vs control in vivo at 160 mg/kg [1, 8] of 151%. It also gave a response vs control in vivo at 320 mg/kg [1, 8] of 261%.

For `Nc1nnc(-c2cccc(Cl)c2Cl)c(N)n1` [Compound A isethionate, 3,5-diamino-6-(2,3-dichlorophenyl)-1,2,4-triazine isethionate], the other behavioural changes ([1]; 10, 20, 40 mg/kg base equivalent p.o.) was “no other behavioural changes were observed”, the response vs control in vivo at 10 mg/kg [1, 9] was 92% and the response vs control in vivo at 20 mg/kg [1, 9] was 165%. The response vs control in vivo at 40 mg/kg [1, 9] was 208%, the “effect on punished responding (in words)” value [1, 10] was “dose-related increase in punished responding at 20 and 40 mg/kg, that at the latter dose being significant” and the solubility [2] was “good solubility”. The solubility ([2]; listed as salt with isethionic acid) was “particularly good solubility”.

Work on `CCC1(C)CC(=O)NC1=O` (stereo not drawn) [Ethosuximide] yielded a response vs control in vivo at 40 mg/kg [1, 11] of 64%, a response vs control in vivo at 80 mg/kg [1, 12] of 133% and a response vs control in vivo at 160 mg/kg [1, 13] of 61%. The response vs control in vivo at 320 mg/kg ([1]; Rattus norvegicus, po, 1 h, read-out: number of licks, percentage of vehicle control responding, 320 mg/kg p.o., one hour before test, vehicle=100% (Table 3)) was 96%.

For `CN1C(=O)CN=C(c2ccccc2)c2cc(Cl)ccc21` [Diazepam, 7-chloro-1,3-dihydro-1-methyl-5-phenyl-2H-1,4-benzodiazepin-2-one], the ataxia ([1]; 1.0 mg/kg s.c.) was “accompanied by ataxia”, the response vs control in vivo at 0.5 mg/kg [1, 14] was 162% and the response vs control in vivo at 1 mg/kg [1, 14] was 296%. For the same compound, the “effect on punished responding (in words)” value [1, 10] was “dose-related increase in punished responding (PR) at 0.5 and 1.0 mg/kg. This effect was large and significant”.

For `Nc1nnc(-c2cccc(Cl)c2Cl)c(N)n1` [Compound A, 3,5-Diamino-6-(2,3-dichlorophenyl)-1,2,4-triazine], the LD50 at 240 h [3] is listed as 640 mg/kg, the “inhibition of release of excitatory amino acids, principally glutamate” value [4] is listed as “inhibit the release of excitatory. amino acids, principally glutamate” and the “block of voltage-sensitive sodium channels” value [5] is listed as “use-dependent block of voltage-sensitive sodium channels”. For the same compound, the “acute oral toxicity (LD50)” value [6] was 250 mg/kg.

With `NC(=O)N1c2ccccc2C=Cc2ccccc21` [Carbamazepine] the “effect on punished responding (in words)” value ([1]; 5.0 mg/kg p.o.) was “no effect”, the “effect on punished responding (in words)” value ([1]; 20 mg/kg p.o.) was “non-significant increase in PR” and the response vs control in vivo at 5 mg/kg ([1]; Rattus norvegicus, po, 1 h, read-out: number of licks, percentage of vehicle control responding, 5.0 mg/kg p.o., one hour before test, vehicle=100% (Table 2)) was 87%. It also gave a response vs control in vivo at 10 mg/kg ([1]; Rattus norvegicus, po, 1 h, read-out: number of licks, percentage of vehicle control responding, 10 mg/kg p.o., one hour before test, vehicle=100% (Table 3)) of 154%, a response vs control in vivo at 20 mg/kg ([1]; Rattus norvegicus, po, 1 h, read-out: number of licks, percentage of vehicle control responding, 20.0 mg/kg p.o., one hour before test, vehicle=100% (Table 2)) of 161% and a response vs control in vivo at 20 mg/kg [1, 15] of 206%. For the same compound, the response vs control in vivo at 40 mg/kg [1, 11] was 219%, the response vs control in vivo at 80 mg/kg [1, 12] was 309% and the “effect on punished responding (in words)” value [1, 10] was “dose-related, significant increase in punished responding”.

Compound `Cc1nccn1CC1CCc2c(c3ccccc3n2C)C1=O` (stereo not drawn) [Ondansetron hydrochloride] has a response vs control in vivo at 0.0001 mg/kg ([1]; Rattus norvegicus, po, 1 h, read-out: number of licks, percentage of vehicle control responding, 0.1 μg/kg p.o., one hour before test, vehicle=100% (Table 3)) of 68%, a response vs control in vivo at 0.001 mg/kg ([1]; Rattus norvegicus, po, 1 h, read-out: number of licks, percentage of vehicle control responding, 1.0 μg/kg p.o., one hour before test, vehicle=100% (Table 3)) of 80% and a response vs control in vivo at 0.01 mg/kg ([1]; Rattus norvegicus, po, 1 h, read-out: number of licks, percentage of vehicle control responding, 10 μg/kg p.o., one hour before test, vehicle=100% (Table 3)) of 70%. For the same compound, the response vs control in vivo at 0.1 mg/kg ([1]; Rattus norvegicus, po, 1 h, read-out: number of licks, percentage of vehicle control responding, 100 μg/kg p.o., one hour before test, vehicle=100% (Table 3)) was 87%, the “effect on punished responding (in words)” value [1, 10] was “lack of any significant anxiolytic effect” and the “anxiolytic effects in other animal models” value [7] was “reported to exhibit anxiolytic effects in other animal models”.

Work on `CN1[C@@H]2CC[C@H]1C[C@@H](OC(=O)c1cc(Cl)cc(Cl)c1)C2` [Bemesetron] yielded a response vs control in vivo at 0.0001 mg/kg [1, 8] of 89%, a response vs control in vivo at 0.001 mg/kg [1, 8] of 129% and a response vs control in vivo at 0.01 mg/kg [1, 8] of 156%. For the same compound, the response vs control in vivo at 0.1 mg/kg [1, 8] was 116%, the “effect on punished responding (in words)” value [1, 10] was “lack of any significant anxiolytic effect” and the “anxiolytic effects in other animal models” value [7] was “reported to exhibit anxiolytic effects in other animal models”.

With `O=C1NC(=O)C(c2ccccc2)(c2ccccc2)N1` [Phenytoin sodium] the “effect on punished responding (in words)” value ([1]; 10 or 40 mg/kg p.o.) was “no effect on PR”, the response vs control in vivo at 10 mg/kg ([1]; Rattus norvegicus, po, 1 h, read-out: number of licks, percentage of vehicle control responding, 10.0 mg/kg p.o. (parent acid equivalent), one hour before test, vehicle=100% (Table 2)) was 121% and the response vs control in vivo at 20 mg/kg [1, 15] was 101%. It also gave a response vs control in vivo at 40 mg/kg ([1]; Rattus norvegicus, po, 1 h, read-out: number of licks, percentage of vehicle control responding, 40.0 mg/kg p.o. (parent acid equivalent), one hour before test, vehicle=100% (Table 2)) of 114%, a response vs control in vivo at 40 mg/kg [1, 11] of 135% and a response vs control in vivo at 80 mg/kg [1, 12] of 220%. It also gave a response vs control in vivo at 160 mg/kg [1, 13] of 173%.
